According to US11945822B2, “Pyrazolo-triazine and/or pyrazolo-pxrimidine derivatives as selective inhibitor of cyclin dependent kinase” (QURIENT CO., LTD., priority 2018, dated 2024):
Like-named read-outs stand apart in the source and are kept apart here.

Experiments:
CDK1/Cyclin B = molecular target: T1, CDK1/Cyclin B (Homo sapiens, UniProt P06493); test: Enzymatic assay for CDK1 (FRET based LANCE Ultra kinase assay); type: biochemical
T1 construct: purchased Invitrogen PR4768C
Summary of the method: (§1)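 Each CDK complex ([…]) phosphorylated 68 nM ULight-MBP peptide with ATP at Km for 60 min at 23° C., against 8 compound doses (4-fold dilutions). EDTA/Eu-anti-phospho-MBP detection, 60 min, then TR-FRET emission at 615 and 665 nm.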

MV4-11 = test: Cellular MV4-11 viability assay (CellTiter-Glo, 72 hours); type: cell-based; conditions: Homo sapiens
Summary of the method: (§2)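 Steps: seed cells at per-line density; add compound, DMSO vehicle kept under 0.1% final; incubate 72 h, 37 °C, 5% CO2; lyse with CellTiter-Glo and read luminescence; run in duplicate.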

CDK2/Cyclin A = molecular target: T2, CDK2/Cyclin A (Homo sapiens, UniProt P24941); test: Enzymatic assay for CDK2 (FRET based LANCE Ultra kinase assay); type: biochemical
T2 construct: purchased Invitrogen PV6290
Summary of the method: as §1

CDK7/Cyclin H/MNAT1 = molecular target: T3, CDK7/Cyclin H/MNAT1 (Homo sapiens, UniProt P50613); test: Enzymatic assay for CDK7 (FRET based LANCE Ultra kinase assay); type: biochemical
T3 construct: purchased Invitrogen PR6749B
Summary of the method: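 LANCE Ultra TR-FRET kinase assay using a ULight-labeled peptide substrate and a Eu-labeled anti-phospho antibody, with ATP at its Km. Purified CDK/cyclin complex was added to compound after brief centrifugation.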

H460 = test: Cellular H460 viability assay (CellTiter-Glo, 72 hours); type: cell-based; conditions: Homo sapiens, NCI-H460
Summary of the method: as §2

A2780 = test: Cellular A2780 viability assay (CellTiter-Glo, 72 hours); type: cell-based; conditions: Homo sapiens
Source text: Human T-cell acute lymphoblastic leukemia cell line, MOLT-4 (ATCC, Cat #CRL-1582), Human multiple myeloma cell line, RPMI-8226 (Invitrogen, Cat #22400-089) and MM.1S (ATCC, Cat #CRL-2974), NSCLC (Non-small cell lung cancer) cell line H460 (ATCC, Cat #HTB-177), Human colon colorectal carcinoma cell line HCT116 (ATCC, Cat #CCL-247), Human acute monocytic leukemia cell line MV4-11 (ATCC, Cat #CRL-9591), OVCAR-3 (ATCC, Cat #HTB-161) and A2780 (ECACC, Cat #93112519) were obtained from ATCC. Cells were grown in RPMI-1640 media (Invitrogen, Cat #22400-089) supplemented with 10% FBS (Invitrogen, Cat #10099141) and 1% penicillin/streptomycin (Invitrogen, Cat #15070063) and cultured at 37° C., 5% CO2 in a humidified chamber. All cell lines were routinely tested for mycoplasma.
The effect of the CDK7 inhibitor to inhibit the growth of target cancer cells was evaluated through the 72 hours time period of viability assay. Briefly, the candidate cell line ware plated in 96 well plate at the following density of cells respectively. 1×10^4 cells/well for MOLT-4, RPMI-8226, MV4-11 and MM.1S, 5×10^3 for H460, HCT116 and OVCAR-3 and IX 10^3 for A2780. After 24 hours, the cells were treated with various concentrations of the compound (ranging from 0.0015 uM to 10 uM). DMSO solvent without compound served as a control and final DMSO concentration less than 0.1%. After 72 hours of incubation at 37° C., 5% CO2 incubator, cells were analyzed for the viability using the CellTiter-Glo Luminescent Cell Viability Assay (Promega, Cat #G7570). All viability assays were performed in duplicate and Luminescence was read using an Envision (Perkin Elmer, USA). Data was analyzed using XLfit software.

CDK5/p25 = molecular target: T4, CDK5/p25 (Homo sapiens, UniProt Q00535); test: Enzymatic assay for CDK5 (FRET based LANCE Ultra kinase assay); type: biochemical
T4 construct: purchased Invitrogen PR8543B
Summary of the method: as §1

RPMI-8226 = test: Cellular RPMI-8226 viability assay (CellTiter-Glo, 72 hours); type: cell-based; conditions: Homo sapiens
Summary of the method: as §2

MOLT-4 = test: Cellular MOLT-4 viability assay (CellTiter-Glo, 72 hours); type: cell-based; conditions: Homo sapiens, MOLT4 viability assay
Summary of the method: as §2

HCT116 = test: Cellular HCT116 viability assay (CellTiter-Glo, 72 hours); type: cell-based; conditions: Homo sapiens, HCT-116
Summary of the method: as §2

[1] = read-out: CDK1 enzymatic activity (IC50 activity range)
[2] = read-out: CDK2 enzymatic activity (IC50 activity range)
[3] = read-out: CDK7 enzymatic activity (IC50 activity range)
[4] = read-out: CDK5 enzymatic activity (IC50 activity range)
[5] = read-out: CDK1 enzymatic activity (IC50 range)
[6] = read-out: CDK2 enzymatic activity (IC50 range)
[7] = read-out: CDK7 enzymatic activity (IC50 range)
[8] = read-out: CDK5 enzymatic activity (IC50 range)

T1 sequence (P06493 whole entry): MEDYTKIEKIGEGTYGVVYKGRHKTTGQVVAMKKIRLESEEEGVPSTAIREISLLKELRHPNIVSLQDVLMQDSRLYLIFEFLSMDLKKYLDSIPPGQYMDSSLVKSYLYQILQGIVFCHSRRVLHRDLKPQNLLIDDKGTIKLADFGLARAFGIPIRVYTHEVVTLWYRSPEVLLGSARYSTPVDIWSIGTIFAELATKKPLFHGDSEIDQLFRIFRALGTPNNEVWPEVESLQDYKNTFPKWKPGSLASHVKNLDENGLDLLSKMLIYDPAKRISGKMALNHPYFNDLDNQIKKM
T1 sequence (P14635 whole entry partner): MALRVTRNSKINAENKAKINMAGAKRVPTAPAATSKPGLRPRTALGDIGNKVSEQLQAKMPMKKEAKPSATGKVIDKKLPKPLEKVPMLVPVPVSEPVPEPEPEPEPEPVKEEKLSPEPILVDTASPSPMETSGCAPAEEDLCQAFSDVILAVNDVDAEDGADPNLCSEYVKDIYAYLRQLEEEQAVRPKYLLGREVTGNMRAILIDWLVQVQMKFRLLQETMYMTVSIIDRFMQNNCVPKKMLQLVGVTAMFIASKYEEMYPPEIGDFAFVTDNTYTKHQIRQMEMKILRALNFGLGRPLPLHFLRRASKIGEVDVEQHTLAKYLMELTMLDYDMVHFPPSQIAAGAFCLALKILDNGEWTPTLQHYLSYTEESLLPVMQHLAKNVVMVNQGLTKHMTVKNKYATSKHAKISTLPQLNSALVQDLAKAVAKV
T4 sequence (Q00535 whole entry): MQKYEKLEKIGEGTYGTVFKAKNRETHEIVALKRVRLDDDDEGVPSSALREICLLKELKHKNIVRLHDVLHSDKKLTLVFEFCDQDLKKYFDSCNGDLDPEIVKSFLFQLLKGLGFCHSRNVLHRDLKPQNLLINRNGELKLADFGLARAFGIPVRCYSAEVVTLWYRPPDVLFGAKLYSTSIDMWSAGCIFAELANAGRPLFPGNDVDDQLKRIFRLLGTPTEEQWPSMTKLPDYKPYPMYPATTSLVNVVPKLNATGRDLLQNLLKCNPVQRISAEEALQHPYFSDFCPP
T4 sequence (Q15078 99-307 partner limits assumed): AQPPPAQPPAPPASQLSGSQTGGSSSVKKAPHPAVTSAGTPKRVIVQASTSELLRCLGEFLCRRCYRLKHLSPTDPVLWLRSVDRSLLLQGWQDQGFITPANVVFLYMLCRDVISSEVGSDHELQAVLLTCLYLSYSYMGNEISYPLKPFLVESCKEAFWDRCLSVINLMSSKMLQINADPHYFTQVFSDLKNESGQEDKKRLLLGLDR
T3 sequence (P50613 whole entry): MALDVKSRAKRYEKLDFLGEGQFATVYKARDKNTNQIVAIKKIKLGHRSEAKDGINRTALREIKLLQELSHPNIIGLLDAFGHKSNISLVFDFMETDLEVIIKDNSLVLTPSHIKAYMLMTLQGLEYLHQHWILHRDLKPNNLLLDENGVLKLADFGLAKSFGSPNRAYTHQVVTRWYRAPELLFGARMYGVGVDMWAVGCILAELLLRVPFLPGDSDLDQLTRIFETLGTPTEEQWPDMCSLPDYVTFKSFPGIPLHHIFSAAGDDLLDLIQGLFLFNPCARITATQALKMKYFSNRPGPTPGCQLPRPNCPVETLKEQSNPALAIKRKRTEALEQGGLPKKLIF
T3 sequence (P51946 whole entry partner): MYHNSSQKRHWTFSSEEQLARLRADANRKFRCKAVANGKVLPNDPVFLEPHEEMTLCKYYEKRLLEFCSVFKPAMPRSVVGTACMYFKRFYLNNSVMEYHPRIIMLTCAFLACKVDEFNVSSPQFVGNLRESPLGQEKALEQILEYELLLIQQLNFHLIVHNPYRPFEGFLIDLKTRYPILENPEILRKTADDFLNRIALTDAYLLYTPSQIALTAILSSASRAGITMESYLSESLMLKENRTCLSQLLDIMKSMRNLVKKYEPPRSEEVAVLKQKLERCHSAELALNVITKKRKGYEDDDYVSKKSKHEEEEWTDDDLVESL
T3 sequence (P51948 whole entry partner): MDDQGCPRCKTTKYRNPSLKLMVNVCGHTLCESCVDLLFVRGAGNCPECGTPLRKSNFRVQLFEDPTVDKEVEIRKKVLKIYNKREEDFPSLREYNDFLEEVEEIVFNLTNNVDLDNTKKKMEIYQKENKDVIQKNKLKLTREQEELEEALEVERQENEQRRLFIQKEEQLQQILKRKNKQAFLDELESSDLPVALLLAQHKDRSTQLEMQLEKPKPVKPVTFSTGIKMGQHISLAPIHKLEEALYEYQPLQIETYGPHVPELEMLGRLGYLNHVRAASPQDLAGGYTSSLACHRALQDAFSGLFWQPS

SMILES	IC50 (CDK1/Cyclin B; [1])	IC50 (MV4-11)	IC50 (CDK2/Cyclin A; [2])	CDK1/CDK7: Selectivity of CDK7 inhibition over CDK1 inhibition (CDK7/Cyclin H/MNAT1; CDK1/CDK7)	CDK2/CDK7: Selectivity of CDK7 inhibition over CDK2 inhibition (CDK7/Cyclin H/MNAT1; CDK2/CDK7)	CDK5/CDK7: Selectivity of CDK7 inhibition over CDK5 inhibition (CDK7/Cyclin H/MNAT1; CDK5/CDK7)	IC50 (CDK7/Cyclin H/MNAT1; [3])	IC50 (H460)	IC50 (A2780)	IC50 (CDK5/p25; [4])	IC50 (CDK1/Cyclin B; [5])	IC50 (CDK2/Cyclin A; [6])	CDK1/CDK7: Selectivity of CDK7 inhibition over CDK1 inhibition (CDK7/Cyclin H/MNAT1; CDK7 over CDK1)	CDK2/CDK7: Selectivity of CDK7 inhibition over CDK2 inhibition (CDK7/Cyclin H/MNAT1; CDK7 over CDK2)	CDK5/CDK7: Selectivity of CDK7 inhibition over CDK5 inhibition (CDK7/Cyclin H/MNAT1; CDK7 over CDK5)	IC50 (CDK7/Cyclin H/MNAT1; [7])	IC50 (CDK5/p25; [8])	IC50 (RPMI-8226)	IC50 (MOLT-4)	IC50 (HCT116)
CCC(O)(CC)c1ccn(-c2cccc(Cl)c2CNc2nc(N3CCC(N)CC3)nc3c(C(C)C)cnn23)n1 [Compound 253]	> 1000 nM	1000 to 10000 nM	> 1000 nM	B (B=less than 200 fold, but greater than 20 fold)	B (B=less than 200 fold, but greater than 20 fold)	B (B=less than 200 fold, but greater than 20 fold)	100 to 1000 nM	1000 to 10000 nM	1000 to 10000 nM	> 1000 nM	–	–	–	–	–	–	–	–	–	–
CC(C)c1cnn2c(NCc3ccccc3-c3ccc4ccccc4n3)nc(NC[C@@H](O)CN)nc12 [Compound 248]	–	1000 to 10000 nM	–	–	–	–	–	< 1000 nM	≤ 1000 nM	–	> 1000 nM	> 1000 nM	A (A=greater than 200 fold)	A (A=greater than 200 fold)	A (A=greater than 200 fold)	< 100 nM	> 1000 nM	–	–	–
CC(C)c1cnn2c(NCc3ccccc3-c3ccc4ccccc4n3)nc(O[C@H]3CC[C@@H](O)CC3)nc12 [Compound 272]	> 1000 nM	1000 to 10000 nM	> 1000 nM	A (A=greater than 200 fold)	A (A=greater than 200 fold)	A (A=greater than 200 fold)	< 100 nM	1000 to 10000 nM	1000 to 10000 nM	> 1000 nM	–	–	–	–	–	–	–	–	–	–
CC(C)c1cnn2c(NCc3ccccc3-c3ccc4ccccc4n3)nc(NCC[C@H](O)CN)nc12 [Compound 247]	–	1000 to 10000 nM	–	–	–	–	–	1000 to 10000 nM	1000 to 10000 nM	–	> 1000 nM	> 1000 nM	A (A=greater than 200 fold)	A (A=greater than 200 fold)	A (A=greater than 200 fold)	< 100 nM	> 1000 nM	–	–	–
CC(C)c1cnn2c(NCc3c(Cl)cccc3-n3ccc(C(C)(C)O)n3)nc(N3CCC(C)(N)CC3)nc12 [Compound 246]	–	< 1000 nM	–	–	–	–	–	< 1000 nM	≤ 1000 nM	–	> 1000 nM	> 1000 nM	A (A=greater than 200 fold)	A (A=greater than 200 fold)	A (A=greater than 200 fold)	< 100 nM	> 1000 nM	–	–	–
CC(C)c1cnn2c(NCc3ccccc3-n3cccn3)nc(N3CCC(C)(N)CC3)nc12 [Compound 27]	–	< 1000 nM	–	–	–	–	–	< 1000 nM	–	–	100 to 1000 nM	100 to 1000 nM	A (A=greater than 200 fold)	B (B=less than 200 fold, but greater than 20 fold)	B (B=less than 200 fold, but greater than 20 fold)	< 100 nM	< 100 nM	< 1000 nM	1000 to 10000 nM	< 1000 nM
CC(C)c1cnn2c(NCc3ccccc3-c3cnc4ccccc4n3)nc(N3CCC(N)CC3)nc12 [Compound 80]	–	< 1000 nM	–	–	–	–	–	< 1000 nM	–	–	100 to 1000 nM	100 to 1000 nM	A (A=greater than 200 fold)	B (B=less than 200 fold, but greater than 20 fold)	B (B=less than 200 fold, but greater than 20 fold)	< 100 nM	< 100 nM	< 1000 nM	1000 to 10000 nM	< 1000 nM
CC(C)c1cnn2c(NCc3c(Cl)cccc3-n3ccc(C(C)(C)O)n3)nc(Nc3cccc4[nH]ccc34)nc12 [Compound 276]	> 1000 nM	< 1000 nM	> 1000 nM	B (B=less than 200 fold, but greater than 20 fold)	B (B=less than 200 fold, but greater than 20 fold)	B (B=less than 200 fold, but greater than 20 fold)	> 1000 nM	–	1000 to 10000 nM	> 1000 nM	–	–	–	–	–	–	–	–	–	–
CC(C)c1cnn2c(NCc3ccccc3-n3cc4c(n3)CCCC4)nc(N3CCC(N)CC3)nc12 [Compound 109]	–	< 1000 nM	–	–	–	–	–	< 1000 nM	–	–	> 1000 nM	100 to 1000 nM	A (A=greater than 200 fold)	A (A=greater than 200 fold)	B (B=less than 200 fold, but greater than 20 fold)	< 100 nM	100 to 1000 nM	< 1000 nM	< 1000 nM	< 1000 nM
NC1CCN(c2nc(NCc3ccccc3-n3cccn3)n3ncc(Br)c3n2)CC1 [Compound 18]	–	< 1000 nM	–	–	–	–	–	< 1000 nM	–	–	100 to 1000 nM	100 to 1000 nM	B (B=less than 200 fold, but greater than 20 fold)	B (B=less than 200 fold, but greater than 20 fold)	C (C=less than 20 fold)	< 100 nM	< 100 nM	< 1000 nM	1000 to 10000 nM	< 1000 nM
